Results from PubChem BioAssay (NCI).
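Compound exposure: 48 hours, 5 concentrations, 96-well plates. The concentration for 50% growth inhibition is given as GI50. TGI: total growth inhibition.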

Experiments:
Experiment in all cases: inhibition of tumour cell growth, NCI panel, 48 h
BT-549 breast = tested on: BT-549 breast
HOP-92 NSCLC = tested on: HOP-92 NSCLC
RXF 393 renal = tested on: RXF 393 renal
LOX IMVI melanoma = tested on: LOX IMVI melanoma
COLO 205 colon = tested on: COLO 205 colon
ACHN renal = tested on: ACHN renal
HT29 colon = tested on: HT29 colon
CCRF-CEM leukemia = tested on: CCRF-CEM leukemia
NCI-H522 lung = tested on: NCI-H522 lung
MOLT-4 leukemia = tested on: MOLT-4 leukemia

Row | Structure (SMILES) | GI50 (BT-549 breast) [µM] | TGI (BT-549 breast) [µM] | GI50 (HOP-92 NSCLC) [µM] | TGI (HOP-92 NSCLC) [µM] | GI50 (RXF 393 renal) [µM] | TGI (RXF 393 renal) [µM] | GI50 (LOX IMVI melanoma) [µM] | TGI (LOX IMVI melanoma) [µM] | GI50 (COLO 205 colon) [µM] | TGI (COLO 205 colon) [µM] | GI50 (ACHN renal) [µM] | TGI (ACHN renal) [µM] | GI50 (HT29 colon) [µM] | TGI (HT29 colon) [µM] | GI50 (CCRF-CEM leukemia) [µM] | TGI (CCRF-CEM leukemia) [µM] | GI50 (NCI-H522 lung) [µM] | TGI (NCI-H522 lung) [µM] | GI50 (MOLT-4 leukemia) [µM] | TGI (MOLT-4 leukemia) [µM]
1 | O=C1C(Cl)=C(Nc2ccccn2)C(=O)c2ccccc21 | 2.09 | 4.58 | 3.17 | 9.84 | 10.2 | 21.8 | 2.04 | 5.29 | 3.23 | 11.4 | 3 | 9.93 | 26.2 | 62.5 | 3.79 | 12.5 | 1.89 | 3.69 | 2.79 | 6.6
2 | COc1ccc2c(c1)c(-c1nc(-c3cn(C)c4ncccc34)cs1)cn2CCCCN1CCOCC1 | 2.3 | 10.7 | 0.922 | 3.59 | 1.2 | 2.65 | 1.32 | 2.68 | 1.69 | 3.56 | 1.59 | 2.99 | 0.766 | 1.95 | 1.02 | 3.23 | 1.77 | 3.81 | 0.951 | 2.8
3 | CC(C)NCCCCCNc1cc(O)cc2cccnc12 | > 37.7 | > 100 | 6.89 | > 100 | > 100 | > 100 | > 100 | > 100 | 1.88 | > 100 | > 100 | > 100 | 31.6 | > 100 | > 51.2 | > 100 | 3.94 | > 100 | > 77.8 | > 100
4 | Cc1ccc2nc(CC(=O)c3ccc4ccccc4c3)c(=O)[nH]c2c1 |  | > 100 |  | > 100 |  | > 100 |  | > 100 |  | > 100 |  | > 100 |  | > 100 |  | > 100 |  | > 100 |  | > 100
5 | CC(=O)OC1CC(C)c2c(Cl)ncnc21 (centres undefined) | > 100 | > 100 | > 100 | > 100 | > 100 | > 100 | > 100 | > 100 | > 100 | > 100 | > 100 | > 100 | > 100 | > 100 | 50.1 | > 100 | 18 | 41.7 | > 100 | > 100
6 | CNc1ccc(C(=O)CC(O)CCC(C)C2OC(=O)CC(O)CC(=O)CC(O)CC(O)CC(O)CC(O)CC3(O)CC(O)C(C(=O)NCCc4ccccn4)C(CC(OC4OC(C)C(O)C(N)C4O)/C=C/C=C/C=C/C=C\C=C/C=C/C=C/C2C)O3)cc1 (centres undefined) | 1.27 | > 50 | 1.48 | 19.2 | 1.05 | 30.4 | 2.11 | > 50 | 1.63 | > 50 | 0.841 | 1.53 | 2.65 | > 50 | 1.77 | > 50 | 4.21 | > 50 | 0.207 | > 50
7 | NCC(=O)NC(CO)C(=O)O (centres undefined) |  | > 100 |  | > 100 |  | > 100 |  | > 100 |  | > 100 |  | > 100 |  | > 100 |  | > 100 |  | > 100 |  | > 100
8 | COc1cc(/C=N/Nc2ncnc3c2cnn3Cc2ccccc2)ccc1O | 12.2 | > 25 | 0.83 | 8.86 | 4.7 | 19.2 | > 17.7 | > 25 | 10.6 | > 25 | 4.13 | > 25 | 14.9 | > 25 | > 6.7 | > 25 | 5.37 | > 22.8 | > 25 | > 25
9 | Cc1[nH]c2ccccc2c1C1=CC(=O)C=CC1=O | 11.1 | 24.4 | 13 | 26.3 | 10.6 | 22.9 | 9.77 | 22.3 | 2.48 | 5.43 | 3.63 | 12.5 | 13.6 | 40.1 |  |  | 1.66 | 3.28 |  | 
10 | COc1ccc(OC)c(-c2cc(C(=O)O)c3cc4ccccc4cc3n2)c1 |  | > 100 |  | > 100 |  | > 100 |  | > 100 |  | > 100 |  | > 100 |  | > 100 |  |  |  | > 100 |  | > 100
11 | Cc1ccc(C)c(N2C(=O)C(=O)c3c(C)ccc(C)c32)c1 |  | 42.2 |  | 96.8 |  | > 100 |  | 31.2 |  | > 100 |  | 33.4 |  | 46.4 |  |  |  | 38.6 |  | 48.8
12 | O=C(c1ccncc1)N1CCN(C2=NS(=O)(=O)c3ccccc3N2c2ccccc2)CC1 | 17.1 | 52.1 | 4.07 | 21.4 | 18.5 | 40.5 | 11.5 | > 100 | 30.3 | > 100 | 11.1 | 53.6 | 19 | 57.8 | 1.95 | > 100 | 5.98 | 67 |  | 
13 | N#C/C(=C\c1ccc([N+](=O)[O-])s1)c1nc2cc(Br)ccc2s1 | 0.165 | 0.815 | 0.175 | 0.451 | 0.325 | 2.06 | 0.171 | 0.395 | 0.269 | 0.844 |  |  | 1.92 | > 100 | 0.161 | > 100 | 0.206 | 0.539 | 0.335 | > 35.5
14 | O=C(OC(CNc1c(C(=O)c2ccccc2)c(=O)n(Cc2ccccc2)c(=O)n1Cc1ccccc1)CN1CCCCC1)c1ccccc1 (centres undefined) | 25.5 | 82.9 |  |  | 14.7 | 29.5 | 12.8 | 25.4 | 19.6 | 47.8 | 30.1 | > 100 |  |  | 16 | 40 | 21.1 | 40.7 |  | 
